Assay results published in ChEMBL document CHEMBL1201862, “PubChem BioAssay data set” (2004).
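Each compound was tested at five concentrations against cells in 96-well plates for 48 hours. GI50 marks 50% less growth.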 Activity calls are given as the source filed them. Rule as the data show it: active = GI50 up to about 1.1 µM and inactive = higher.

Experiments:
Test in all cases: inhibition of tumour cell growth, NCI panel, 48 h
A549 = tested on: A549
CAKI-1 = tested on: CAKI-1
CCRF-CEM = tested on: CCRF-CEM
HOP-62 = tested on: HOP-62
HOP-92 = tested on: HOP-92
HT-29 = tested on: HT-29
Hs-578T = tested on: Hs-578T
KM12 = tested on: KM12
LOX IMVI = tested on: LOX IMVI
MDA-N = tested on: MDA-N
Malme-3M = tested on: Malme-3M
NCI-H226 = tested on: NCI-H226
NCI/ADR-RES = tested on: NCI/ADR-RES
OVCAR-5 = tested on: OVCAR-5
PC-3 = tested on: PC-3
RPMI-8226 = tested on: RPMI-8226
SN12C = tested on: SN12C
SR = tested on: SR
TK-10 = tested on: TK-10
U-251 = tested on: U-251

SMILES	GI50 (A549)	GI50 (CAKI-1)	GI50 (CCRF-CEM)	GI50 (HOP-62)	GI50 (HOP-92)	GI50 (HT-29)	GI50 (Hs-578T)	GI50 (KM12)	GI50 (LOX IMVI)	GI50 (MDA-N)	GI50 (Malme-3M)	GI50 (NCI-H226)	GI50 (NCI/ADR-RES)	GI50 (OVCAR-5)	GI50 (PC-3)	GI50 (RPMI-8226)	GI50 (SN12C)	GI50 (SR)	GI50 (TK-10)	GI50 (U-251)
C#CC1(O)C(COP(=O)(O)OCC2OC(n3ccc(NCCCCCCCCCCCCCCCCCC)nc3=O)C(O)C2O)OC(n2ccc(N)nc2=O)C1O (stereo not given)	0.0525 µM (active)	0.161 µM (active)	0.929 µM (active)	4.04 µM (inactive)	21.2 µM (inactive)	0.518 µM (active)	2.12 µM (inactive)	0.836 µM (active)	0.048 µM (active)	1.14 µM (inactive)	0.745 µM (active)	0.757 µM (active)	0.556 µM (active)	5.36 µM (inactive)	1.8 µM (inactive)	0.142 µM (active)	0.488 µM (active)	< 0.0124 µM (active)	0.401 µM (active)	0.959 µM (active)
CCOC(=O)C(Cc1c2ccccc2cc2ccccc12)(NC(C)=O)C(=O)OCC	> 72.8 µM (inactive)	20 µM (inactive)	56.4 µM (inactive)	> 56 µM (inactive)	14.2 µM (inactive)	> 86.9 µM (inactive)	46.8 µM (inactive)	97.7 µM (inactive)	> 100 µM (inactive)	> 83.9 µM (inactive)	> 100 µM (inactive)	62.1 µM (inactive)	> 50.2 µM (inactive)	> 100 µM (inactive)	50 µM (inactive)	> 100 µM (inactive)	> 100 µM (inactive)	70.5 µM (inactive)	> 100 µM (inactive)	> 80.5 µM (inactive)
C[C@@H]1C[C@H](O)[C@]2(O)O[C@@H]3C[C@@]4(C=O)[C@@H](CC=C5[C@@H]4CC[C@]4(C)[C@@H](C6=CC(=O)OC6)CC[C@]54O)C[C@H]3O[C@@H]2O1	< 0.0109 µM (active)	< 0.0125 µM (active)	< 0.01 µM (active)	< 0.0121 µM (active)	0.0277 µM (active)	< 0.0212 µM (active)	< 0.01 µM (active)	0.0337 µM (active)	0.0176 µM (active)	0.042 µM (active)	< 0.01 µM (active)	< 0.0191 µM (active)	< 0.0202 µM (active)	0.0951 µM (active)	0.02 µM (active)	< 0.018 µM (active)	< 0.01 µM (active)	< 0.015 µM (active)	< 0.01 µM (active)	< 0.0214 µM (active)
COc1cc(OC(=O)c2ccccc2)cc2c1C(=O)C=CC2=O	36.2 µM (inactive)	20.6 µM (inactive)	0.543 µM (active)	42.9 µM (inactive)	2.16 µM (inactive)	14.1 µM (inactive)	25.1 µM (inactive)	15.1 µM (inactive)	12.3 µM (inactive)	6.44 µM (inactive)	15.3 µM (inactive)	28.4 µM (inactive)	15.2 µM (inactive)	32.7 µM (inactive)	14 µM (inactive)	2.93 µM (inactive)	19.5 µM (inactive)	0.469 µM (active)	17.9 µM (inactive)	16.4 µM (inactive)
COC(=O)C1(Cc2cccc(C)c2)Cc2c(C)cccc2C1=O (stereo not given)	38.6 µM (inactive)	64.9 µM (inactive)	61.8 µM (inactive)	59.6 µM (inactive)	30.4 µM (inactive)	29.6 µM (inactive)	38.5 µM (inactive)	28.1 µM (inactive)	50.1 µM (inactive)	14.3 µM (inactive)	33.9 µM (inactive)	44.9 µM (inactive)	24 µM (inactive)	> 100 µM (inactive)	27.2 µM (inactive)	> 100 µM (inactive)	44.9 µM (inactive)	> 100 µM (inactive)	89.3 µM (inactive)	38.7 µM (inactive)
NC(=O)c1cc2ccccc2c(/N=N/c2ccccc2)c1O	> 100 µM (inactive)	23.5 µM (inactive)	> 100 µM (inactive)	22.6 µM (inactive)	12.5 µM (inactive)	7.87 µM (inactive)	93.3 µM (inactive)	28.6 µM (inactive)	> 100 µM (inactive)	> 100 µM (inactive)	> 100 µM (inactive)	> 100 µM (inactive)	76.2 µM (inactive)	> 100 µM (inactive)	> 100 µM (inactive)	59.6 µM (inactive)	> 100 µM (inactive)	> 100 µM (inactive)	> 100 µM (inactive)	9.59 µM (inactive)
CC1CC[C@]2(C(=O)O)CCC3(C)C(=C2[C@H]1C)C=CC1[C@@]2(C)CC[C@H](O)C(C)(C)C2CC[C@]13C (stereo not given in full)	11.8 µM (inactive)	22.8 µM (inactive)	29.7 µM (inactive)	21.1 µM (inactive)	18.7 µM (inactive)	31.1 µM (inactive)	26 µM (inactive)	31 µM (inactive)	33.1 µM (inactive)	56.9 µM (inactive)	26.6 µM (inactive)	66.1 µM (inactive)	36.6 µM (inactive)	39.5 µM (inactive)	21.1 µM (inactive)	12.2 µM (inactive)	59.3 µM (inactive)	12.4 µM (inactive)	33.5 µM (inactive)	29 µM (inactive)
